Test results taken from article PMC10947197, “Acid‐Resistant BODIPY Amino Acids for Peptide‐Based Fluorescence Imaging of GPR54 Receptors in Pancreatic Islets” (Angewandte Chemie (International Ed. in English), 2023).
Numbered stars: 1 amine (or outer) side, 2 acyl side, 3 side chain; on linkers, the order of the positions; unused ones are H or OH. Square brackets hold non-standard residues; d marks the D form. Peptide text beside a SMILES is read from it. X1 = CC1=CC(C)=[N+]2C1=C(c1cccc(-c3[nH]c4ccccc4c3C[C@H](N[*:1])C(=O)[*:2])c1)c1c(C)cc(C)n1[B-]2(C#N)C#N

Key:
hGPR54 = biological target: T1, hGPR54 (Homo sapiens, UniProt Q969F8); assay: Calcium mobilization assay in HEK293 cells stably expressing hGPR54; assay type: cell-based; conditions: HEK293 cells stably expressing hGPR54, 50,000 cells per well, Fluo4 NW Ca2+ assay kit, GraphPad Prism 9 sigmoidal fit; read-out: EC50 (Ca2+ influx, agonist)
T1 construct: expressed in transfected cells

[1] = Stability analysis of Trp-BODIPY FlAAs under SPPS conditions; conditions: r.t.; for Stability (purity by HPLC-MS): 70 μM; for Chemical stability (HPLC-MS): 70 µM;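 for all read-outs here: chemical integrity of the BODIPY-labelled tryptophan amino acids checked after exposure to reagents used in solid-phase peptide synthesis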
Protocol: Next, we studied the stability of Trp‐BODIPY PLUS in TFA and compared it to that of Trp‐BODIPY (Table 2).
Analysis of t he chemical st abilit y of T rp-BO DI PY and T rp-
BODIPY PLUS under conve nt ion al SPPS condit i ons. Amino aci ds were di lut ed w it h
dif f erent rea gent mixt ur es (70 µ M , f inal v olum e 10 0 uL) a nd st irre d at r. t . f or 1 h
( c ondit i ons A-B and E-H) or 5 m i n ( c o ndit i ons C an d D).
Fmoc-T rp -BO DI PY(X)2-OH
En t ry Conditions X = F X = CN

[2] = Integrity of BODIPY core in crude peptides after cleavage with 95% TFA (HPLC-MS); assay type: physicochemical; conditions: crude peptide
Excerpt: To study the application of Trp‐BODIPY PLUS for SPPS of fluorogenic peptides, we first prepared analogues of the model linear sequence KYRAE, which contains a range of non‐polar, positively‐charged and negatively‐charged residues with different PGs (e.g., Boc, tBu, Pbf). We performed the synthesis using standard Fmoc/tBu SPPS conditions (e.g., OxymaPure and 1‐ cyano‐2‐ethoxy‐2‐oxoethylidenaminooxy)dimethylamino‐mor‐pholino‐carbenium hexafluorophosphate (COMU) for couplings, piperidine:DMF (2 : 8) for Fmoc removal) and introduced Trp‐BODIPY PLUS at the N‐terminal end. We performed the cleavage of the labeled peptide (i.e., W(BODIPYplus)KYRAE, peptide 4, Figure 1) with 95 % TFA and compared the purity of the crude to that obtained when using the acid‐labile Trp‐BODIPY (i.e., W(BODIPY)KYRAE, peptide 5, Figure 1). […] Overall, we isolated the model peptide 4 in good yields >20 % and >95 % purity after HPLC purification (see Supporting Information for synthetic and characterization details).

apoptotic cells = conditions: ref [10e]; cited from earlier work
Excerpt: Next, we assessed whether incorporation of Trp‐BODIPY PLUS enabled retention of the molecular recognition features of bioactive peptides. […] Because Apo‐15 contains one Trp‐BODIPY residue within its sequence, we synthesized the corresponding analogue using Trp‐BODIPY PLUS as the FlAA.

T1 sequence (Q969F8 whole entry): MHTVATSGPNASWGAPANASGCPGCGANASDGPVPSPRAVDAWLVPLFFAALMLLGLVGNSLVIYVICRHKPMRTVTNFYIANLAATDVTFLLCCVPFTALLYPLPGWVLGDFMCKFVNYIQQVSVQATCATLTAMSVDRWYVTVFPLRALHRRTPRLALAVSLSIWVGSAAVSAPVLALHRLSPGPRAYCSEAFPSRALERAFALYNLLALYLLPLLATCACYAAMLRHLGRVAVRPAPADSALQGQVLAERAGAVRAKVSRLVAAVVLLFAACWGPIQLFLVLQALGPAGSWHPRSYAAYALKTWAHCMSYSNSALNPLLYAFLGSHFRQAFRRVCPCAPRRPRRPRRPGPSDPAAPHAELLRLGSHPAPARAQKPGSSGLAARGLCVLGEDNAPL

Molecule: CC(C)C[C@H](NC(=O)CNC(=O)[C@H](Cc1ccccc1)NC(=O)[C@H](CO)NC(=O)[C@H](CC(N)=O)NC(=O)[C@H](Cc1c[nH]c2ccccc12)NC(=O)[C@H](CC(N)=O)NC(=O)[C@@H](N)Cc1ccc(O)cc1)C(=O)N[C@@H](CCCNC(=N)N)C(=O)N[C@@H](Cc1ccccc1)C(N)=O [KP-10, reference compound]
- EC50 (hGPR54): 0.22 nM

Molecule: CC1=CC(C)=[N+]2C1=C(c1cccc(-c3[nH]c4ccccc4c3C[C@H](NC(=O)OCC3c4ccccc4-c4ccccc43)C(=O)O)c1)c1c(C)cc(C)n1[B-]2(F)F [Trp-BODIPY, reference compound]
- Stability (purity by HPLC-MS) ([1]; 2% N2H4 in DMF, 60 min): > 95%
- Stability (purity by HPLC-MS) ([1]; 95% TFA, 2.5% DTT, 60 min, DCM): < 5%
- Stability (purity by HPLC-MS) ([1]; 95% TFA, 2.5% H2O, 60 min, DCM): < 5%
- Stability (purity by HPLC-MS) ([1]; 95% TFA, 2.5% TIS, 60 min, DCM): < 5%
- Stability (purity by HPLC-MS) ([1]; 95% TFA, 5 min, DCM): < 5%
- Stability (purity by HPLC-MS) ([1]; 95% TFA, 60 min, DCM): < 5%
- Stability (purity by HPLC-MS) ([1]; I2 (5 eq) in MeOH, 60 min): 38%
- Stability (purity by HPLC-MS) ([1]; Pd(PPh3)4 (0.1 eq), PhSiH3 (10 eq), 60 min, DCM): > 95%
- Chemical stability (HPLC-MS) ([1]; Supplementary Table 2 entry A: 1% TFA, 2.5% DTT, 1 h): > 95%
- Chemical stability (HPLC-MS) ([1]; Supplementary Table 2 entry B: 5% TFA, 2.5% DTT, 1 h): 34%
- Chemical stability (HPLC-MS) ([1]; Supplementary Table 2 entry C: 95% TFA, 2.5% DTT, 5 min): 7%
- Chemical stability (HPLC-MS) ([1]; Supplementary Table 2 entry D: 20% piperidine: DMF, 5 min): > 95%
- Chemical stability (HPLC-MS) ([1]; Supplementary Table 2 entry E: 5% NaHCO3 (aq), 1 h): > 95%
- Chemical stability (HPLC-MS) ([1]; Supplementary Table 2 entry F: 5% Na2CO3 (aq), 1 h): > 95%
- Chemical stability (HPLC-MS) ([1]; Supplementary Table 2 entry G: 1% DIPEA: DMF, 1 h): > 95%
- Chemical stability (HPLC-MS) ([1]; Supplementary Table 2 entry H: 0.1 M HOBt: TFE, 1 h): > 95%
- Stability (purity by HPLC-MS) ([1]; TBAF (3 eq), 60 min, DCM): > 95%

Molecule: CC1=CC(C)=[N+]2C1=C(c1cccc(-c3[nH]c4ccccc4c3C[C@H](NC(=O)[C@H](CC(N)=O)NC(=O)[C@@H](N)Cc3ccc(O)cc3)C(=O)N[C@@H](CC(N)=O)C(=O)N[C@@H](CO)C(=O)N[C@@H](Cc3ccccc3)C(=O)NCC(=O)N[C@@H](CC(C)C)C(=O)N[C@@H](CCCNC(=N)N)C(=O)N[C@@H](Cc3ccccc3)C(N)=O)c1)c1c(C)cc(C)n1[B-]2(C#N)C#N [peptide 7] (H-YN[X1]NSFGLRF-NH2)
- EC50 (hGPR54): 2.5 nM

Molecule: W(BODIPY)KYRAE [peptide 5, model linear peptide KYRAE with acid-labile Trp-BODIPY at the N-terminal end]
- Stability of BODIPY core after cleavage (in words) [2]: completely degraded

Molecule: W(BODIPYplus)KYRAE [peptide 4, model linear peptide KYRAE with Trp-BODIPY PLUS at the N-terminal end]
- Stability of BODIPY core after cleavage (in words) [2]: remained fully stable

Molecule: cyclo(GRKKWFW(BODIPY)) (head to tail) [Apo-15]
- Ca2+ dependence of apoptotic cell labelling (in words) (apoptotic cells): independent on the concentration of Ca^2+ ions
- Selective labelling of apoptotic cells (in words) (apoptotic cells): fluorogenic probe for selective labeling of apoptotic cells
